# Test results reported in US20130178597A1, “POLYIMIDE PRECURSOR, POLYIMIDE, AND MATERIALS TO BE USED IN PRODUCING SAME” (UBE INDUSTRIES, LTD., priority 2010, published 2013).
# Assays:
# [1] = Light transmittance at 400 nm of s-BPDA powder, 10 mass % in 2 N aqueous sodium hydroxide; assay type: physicochemical; conditions: light path 1 cm
# Procedure: A predetermined amount of s-BPDA powder was dissolved in a 2 N aqueous solution of sodium hydroxide to obtain a 10 mass % aqueous solution. Using a MCPD-300 manufactured by Otsuka Electronics Co., Ltd., and a standard cell having a light path length of 1 cm, the light transmittance at 400 nm of the s-BPDA solution was measured using the 2 N aqueous solution of sodium hydroxide as a blank.
# [2] = Light transmittance at 400 nm of trans-1,4-diaminocyclohexane powder, 10 mass % in pure water; assay type: physicochemical; conditions: light path 1 cm
# Procedure: A predetermined amount of trans-1,4-diaminocyclohexane powder was dissolved in pure water to obtain a 10 mass % aqueous solution. Using a MCPD-300 manufactured by Otsuka Electronics Co., Ltd., and a standard cell having a light path length of 1 cm, the light transmittance at 400 nm of the trans-1,4-diaminocyclohexane solution was measured using pure water as a blank.
# [3] = Solubility of s-BPDA at 25° C. in solvent; conditions: s-BPDA in the solvent used in the example
# Procedure: The non-dissolved s-BPDA was filtered through filter paper 5A manufactured by Advantec, Inc. to obtain s-BPDA saturated solution. 5 g of the s-BPDA saturated solution was charged into an aluminum dish, heated for 1 hour at 80° C., and then heated for 1 hour at 200° C. The solubility was calculated by determining the mass of s-BPDA remaining in the saturated solution based on the residue after heating.
# [4] = Solubility of i-BPDA at 25° C. in solvent; assay type: physicochemical; conditions: i-BPDA in the solvent used in the example
# Procedure: The non-dissolved i-BPDA was filtered through filter paper 5A manufactured by Advantec, Inc. to obtain i-BPDA saturated solution. 5 g of the i-BPDA saturated solution was charged into an aluminum dish, heated for 1 hour at 80° C., and then heated for 1 hour at 200° C. The solubility was calculated by determining the mass of i-BPDA remaining in the saturated solution based on the residue after heating.
# [5] = Light transmittance at 400 nm of i-BPDA powder, 10 mass % in 2 N aqueous sodium hydroxide; assay type: physicochemical; conditions: light path 1 cm
# Procedure: A predetermined amount of i-BPDA powder was dissolved in a 2 N aqueous solution of sodium hydroxide to obtain a 10 mass % aqueous solution. Using a MCPD-300 manufactured by Otsuka Electronics Co., Ltd., and a standard cell having a light path length of 1 cm, the light transmittance at 400 nm of the i-BPDA solution was measured using the 2 N aqueous solution of sodium hydroxide as a blank.
# [6] = Light transmittance at 400 nm of a-BPDA powder, 10 mass % in 2 N aqueous sodium hydroxide; assay type: physicochemical; conditions: light path 1 cm
# [7] = Light transmittance of solvent at 400 nm after heating with refluxing; assay type: physicochemical; conditions: heated to reflux for 3 hours under nitrogen atmosphere
# Procedure: For light transmittance after heating with refluxing, measurement was carried out using a solvent that had been heated to reflux for 3 hours under nitrogen atmosphere having oxygen concentration of 200 ppm or less.
# [8] = Light transmittance of solvent at 400 nm; assay type: physicochemical; conditions: light path 1 cm, water as a blank
# Procedure: Using a MCPD-300 manufactured by Otsuka Electronics Co., Ltd., and a standard cell having a light path length of 1 cm, the light transmittance of a solvent at 400 nm was measured using water as a blank.
compound,measurement,setting,value
"O=C1OC(=O)c2cc(-c3ccc4c(c3)C(=O)OC4=O)ccc21 [Comparative Example D1, 3,3′,4,4′-Biphenyltetracarboxylic dianhydride, reference compound]",light transmittance of obtained s-BPDA powder at 400 nm,[1],75%
"N[C@H]1CC[C@H](N)CC1 [Referential Example E2, trans-1,4-diaminocyclohexane]","Light Transmittance at 400 nm (trans-1,4-diaminocyclohexane powder)",[2],89%
"O=C1OC(=O)c2cc(-c3ccc4c(c3)C(=O)OC4=O)ccc21 [Example D6, 3,3′,4,4′-Biphenyltetracarboxylic dianhydride]",Solubility of used solvent at 25° C.,[3],0.4 g/100 g
"O=C1OC(=O)c2cc(-c3ccc4c(c3)C(=O)OC4=O)ccc21 [Example D1, 3,3′,4,4′-Biphenyltetracarboxylic dianhydride]",light transmittance of obtained s-BPDA powder at 400 nm,[1],81%
same,Solubility of used solvent at 25° C.,[3],1.3 g/100 g
"O=C1OC(=O)c2c1cccc2-c1cccc2c1C(=O)OC2=O [Example F2, 2,2′,3,3′-Biphenyltetracarboxylic dianhydride]",Solubility at 25° C.,[4],4.4 g/100 g
same,Light Transmittance at 400 nm (i-BPDA),[5],92%
"O=C1OC(=O)c2cc(-c3cccc4c3C(=O)OC4=O)ccc21 [Comparative Example C1, 2,3,3′,4′-Biphenyltetracarboxylic dianhydride, reference compound]",light transmittance at 400 nm (a-BPDA powder),[6],77%
"O=C1OC(=O)c2cc(-c3ccc4c(c3)C(=O)OC4=O)ccc21 [Example D7, 3,3′,4,4′-Biphenyltetracarboxylic dianhydride]",light transmittance of obtained s-BPDA powder at 400 nm,[1],79%
same,Solubility of used solvent at 25° C.,[3],0.3 g/100 g
"O=C1OC(=O)c2cc(-c3cccc4c3C(=O)OC4=O)ccc21 [Comparative Example C2, 2,3,3′,4′-Biphenyltetracarboxylic dianhydride, reference compound]",light transmittance at 400 nm (a-BPDA powder),[6],81%
"O=C1OC(=O)c2cc(-c3ccc4c(c3)C(=O)OC4=O)ccc21 [Comparative Example D3, 3,3′,4,4′-Biphenyltetracarboxylic dianhydride, reference compound]",light transmittance of obtained s-BPDA powder at 400 nm,[1],75%
same,Solubility of used solvent at 25° C.,[3],<0.1 g/100 g
"O=C1OC(=O)c2c1cccc2-c1cccc2c1C(=O)OC2=O [Example F5, 2,2′,3,3′-Biphenyltetracarboxylic dianhydride]",Light Transmittance at 400 nm (i-BPDA),[5],91%
"O=C1OC(=O)c2cc(-c3ccc4c(c3)C(=O)OC4=O)ccc21 [Example D2, 3,3′,4,4′-Biphenyltetracarboxylic dianhydride]",light transmittance of obtained s-BPDA powder at 400 nm,[1],81%
"O=C1OC(=O)c2c1cccc2-c1cccc2c1C(=O)OC2=O [Comparative Example F1, 2,2′,3,3′-Biphenyltetracarboxylic dianhydride, reference compound]",Light Transmittance at 400 nm (i-BPDA),[5],79%
"O=C1OC(=O)c2c1cccc2-c1cccc2c1C(=O)OC2=O [Comparative Example F2, 2,2′,3,3′-Biphenyltetracarboxylic dianhydride, reference compound]",Solubility at 25° C.,[4],<0.1 g/100 g
same,Light Transmittance at 400 nm (i-BPDA),[5],79%
"O=C1OC(=O)c2cc(-c3ccc4c(c3)C(=O)OC4=O)ccc21 [Example D4, 3,3′,4,4′-Biphenyltetracarboxylic dianhydride]",light transmittance of obtained s-BPDA powder at 400 nm,[1],78%
"O=C1OC(=O)c2cc(-c3ccc4c(c3)C(=O)OC4=O)ccc21 [Example D8, 3,3′,4,4′-Biphenyltetracarboxylic dianhydride]",light transmittance of obtained s-BPDA powder at 400 nm,[1],91%
"O=C1OC(=O)c2cc(-c3ccc4c(c3)C(=O)OC4=O)ccc21 [Comparative Example D5, 3,3′,4,4′-Biphenyltetracarboxylic dianhydride, reference compound]",light transmittance of obtained s-BPDA powder at 400 nm,[1],3%
"O=C1OC(=O)c2c1cccc2-c1cccc2c1C(=O)OC2=O [Example F1, 2,2′,3,3′-Biphenyltetracarboxylic dianhydride]",Solubility at 25° C.,[4],3.2 g/100 g
same,Light Transmittance at 400 nm (i-BPDA),[5],91%
"O=C1OC(=O)c2cc(-c3ccc4c(c3)C(=O)OC4=O)ccc21 [Example D5, 3,3′,4,4′-Biphenyltetracarboxylic dianhydride]",Solubility of used solvent at 25° C.,[3],0.1 g/100 g
"O=C1OC(=O)c2c1cccc2-c1cccc2c1C(=O)OC2=O [Example F7, 2,2′,3,3′-Biphenyltetracarboxylic dianhydride]",Light Transmittance at 400 nm (i-BPDA),[5],89%
"O=C1OC(=O)c2c1cccc2-c1cccc2c1C(=O)OC2=O [Example F4, 2,2′,3,3′-Biphenyltetracarboxylic dianhydride]",Light Transmittance at 400 nm (i-BPDA),[5],93%
"O=C1OC(=O)c2cc(-c3ccc4c(c3)C(=O)OC4=O)ccc21 [Example D3, 3,3′,4,4′-Biphenyltetracarboxylic dianhydride]",light transmittance of obtained s-BPDA powder at 400 nm,[1],82%
same,Solubility of used solvent at 25° C.,[3],2.3 g/100 g
"O=C1OC(=O)c2cc(-c3cccc4c3C(=O)OC4=O)ccc21 [Example C2, 2,3,3′,4′-Biphenyltetracarboxylic dianhydride]",light transmittance at 400 nm (a-BPDA powder),[6],97%
"O=C1OC(=O)c2c1cccc2-c1cccc2c1C(=O)OC2=O [Example F6, 2,2′,3,3′-Biphenyltetracarboxylic dianhydride]",Light Transmittance at 400 nm (i-BPDA),[5],95%
"O=C1OC(=O)c2cc(-c3ccc4c(c3)C(=O)OC4=O)ccc21 [Comparative Example D2, 3,3′,4,4′-Biphenyltetracarboxylic dianhydride, reference compound]",light transmittance of obtained s-BPDA powder at 400 nm,[1],75%
same,Solubility of used solvent at 25° C.,[3],<0.1 g/100 g
"O=C1OC(=O)c2cc(-c3cccc4c3C(=O)OC4=O)ccc21 [Comparative Example C4, 2,3,3′,4′-Biphenyltetracarboxylic dianhydride, reference compound]",light transmittance at 400 nm (a-BPDA powder),[6],84%
"O=C1OC(=O)c2c1cccc2-c1cccc2c1C(=O)OC2=O [Example F3, 2,2′,3,3′-Biphenyltetracarboxylic dianhydride]",Solubility at 25° C.,[4],6.8 g/100 g
same,Light Transmittance at 400 nm (i-BPDA),[5],93%
"O=C1OC(=O)c2cc(-c3cccc4c3C(=O)OC4=O)ccc21 [Example C1, 2,3,3′,4′-Biphenyltetracarboxylic dianhydride]",light transmittance at 400 nm (a-BPDA powder),[6],98%
"O=C1OC(=O)c2cc(-c3cccc4c3C(=O)OC4=O)ccc21 [Example C4, 2,3,3′,4′-Biphenyltetracarboxylic dianhydride]",light transmittance at 400 nm (a-BPDA powder),[6],92%
"CN1CCCC1=O [NMP (99.96%), N-methyl-2-pyrrolidone]",Light Transmittance at 400 nm after reflux (solvent),[7],41%
same,Light Transmittance at 400 nm (solvent),[8],89%
"N[C@H]1CC[C@H](N)CC1 [Example E2, trans-1,4-diaminocyclohexane]","Light Transmittance at 400 nm (trans-1,4-diaminocyclohexane powder)",[2],96%
"O=C1OC(=O)c2cc(-c3cccc4c3C(=O)OC4=O)ccc21 [Example C3, 2,3,3′,4′-Biphenyltetracarboxylic dianhydride]",light transmittance at 400 nm (a-BPDA powder),[6],94%
"O=C1OC(=O)c2c1cccc2-c1cccc2c1C(=O)OC2=O [Comparative Example F3, 2,2′,3,3′-Biphenyltetracarboxylic dianhydride, reference compound]",Light Transmittance at 400 nm (i-BPDA),[5],66%
"CN1CCCC1=O [NMP (99.62%), N-methyl-2-pyrrolidone]",Light Transmittance at 400 nm after reflux (solvent),[7],0.1%
same,Light Transmittance at 400 nm (solvent),[8],88%
"O=C1OC(=O)c2cc(-c3ccc4c(c3)C(=O)OC4=O)ccc21 [Comparative Example D4, 3,3′,4,4′-Biphenyltetracarboxylic dianhydride, reference compound]",light transmittance of obtained s-BPDA powder at 400 nm,[1],72%
"N[C@H]1CC[C@H](N)CC1 [Referential Example E1, trans-1,4-diaminocyclohexane]","Light Transmittance at 400 nm (trans-1,4-diaminocyclohexane powder)",[2],86%
"O=C1OC(=O)c2cc(-c3cccc4c3C(=O)OC4=O)ccc21 [Example C5, 2,3,3′,4′-Biphenyltetracarboxylic dianhydride]",light transmittance at 400 nm (a-BPDA powder),[6],89%
